This is an account of results in patent publication US7569587B2, “Antibacterial mutilins” (Nabriva Therapeutics AG, priority 2000, dated 2009).

Molecules are shown by their SMILES.

The experiment relates to Staphylococcus. Briefly: Systemic infections of mice (Handbook of animal models of infection). The format is in vivo. The conditions noted are these: parenteral or oral administration, Probit analysis. From the text: The active compounds of the present invention show e.g. activity in systemic infections of mice determined according to the Handbook of animal models of infection.
ED50=Effective dosage in mg/kg body weight per application by which 50% of the treated animals are protected from death; calculated by Probit analysis (n=8 animals/group).
Regarding `C=CC1(C)CC(OC(=O)CS[C@H]2CCCN(C(=O)[C@H](N)C(C)C)C2)C2(C)C(C)CCC3(CCC(=O)C32)C(C)C1O` (stereo partly drawn) [Example 1], the “ED50 (dosage by which 50% of the treated animals are protected from death)” value is recorded as ~7.0 mg/kg body weight.

On to `C=CC1(C)CC(OC(=O)CSC2CCN(C(=O)[C@H](N)C(C)C)C2)C2(C)C(C)CCC3(CCC(=O)C32)C(C)C1O` (stereo partly drawn) [Example 5, 14-O—[(N-(3-methyl-2(R)-amino-butyryl)-pyrrolidine-3-yl)-sulfanylacetyl]-mutilin], for which the “ED50 (dosage by which 50% of the treated animals are protected from death)” value is reported as “about 11.0 mg/kg body weight”.

Take `C=CC1(C)CC(OC(=O)CSC2CCN(C(=O)[C@H](N)Cc3c[nH]cn3)C2)C2(C)C(C)CCC3(CCC(=O)C32)C(C)C1O` (stereo partly drawn) [Example 6, 4-O—[(N—(R)-histidinyl-pyrrolidin-3-yl)sulfanylacetyl]mutilin]: the “ED50 (dosage by which 50% of the treated animals are protected from death)” value is recorded as “about 11.0 mg/kg body weight”.
